Laboratory results as given in patent publication US20100330003A1, “ORAL CARE PRODUCT AND METHODS OF USE AND MANUFACTURE THEREOF” (Colgate-Palmolive Company, priority 2008, published 2010).

System: S. sanguis
Assay: ammonia production by S. sanguis at pH 4.0 (Ammonia Assay kit)
Format: cell-based
Details: 5 millimolar amino acid, 0.1% sucrose, pH 4.0, 37° C., 30 minutes
Procedure: An overnight culture of S. sanguis is grown at 37° C. in trypticase soy broth (Becton Dickinson, Sparks, Md.). The culture is centrifuged at 5,000 rpm for 5 minutes at 1 milliliter at a time into preweighed tubes in order to accumulate approximately 5 milligrams of wet pellet weight. The pellet is then resuspended into 20 millimolar potassium phosphate buffer (JT Baker. Phillipsburg, N.J.), pH 4.0, to simulate a stressed environment for the bacterial cell where ammonia would be produced for survival. The final concentration is 5 milligram per milliliter. To this final concentration, a 5 millimolar final concentration of L-arginine, L-citrulline, or L-ornithine is added along with a 0.1% final concentration of sucrose (VWR, West Chester, Pa.). This mixture is then incubated at 37° C. in a shaking water bath for 30 minutes before ammonia production is determined.
In order to analyze for ammonia, an Ammonia Assay kit is used from Diagnostic Chemicals Limited (Oxford, Conn.). The intended use of this specific kit is for the in vitro quantification of ammonia in plasma, but the procedure is modified in order to determine and quantity the ammonia production in plaque and/or bacteria.

N=C(N)NCCC[C@H](N)C(=O)O [L-Arginine, L-arginine]
Ammonia (ppm) (Mean of 6 separate trials): 1.06 ppm | Ammonia (ppm) (Trial 1): 0.509 ppm | Ammonia (ppm) (Trial 2): 0.866 ppm | Ammonia (ppm) (Trial 3): 2.20 ppm | Ammonia (ppm) (Trial 4): 1.62 ppm | Ammonia (ppm) (Trial 5): 0.5 ppm | Ammonia (ppm) (Trial 6): 0.679 ppm

NC(=O)NCCC[C@H](N)C(=O)O [L-Citrulline, L-citrulline]
Ammonia (ppm) (Mean of 6 separate trials): 0.951 ppm | Ammonia (ppm) (Trial 1): 0.185 ppm | Ammonia (ppm) (Trial 2): 0.346 ppm | Ammonia (ppm) (Trial 3): 0.332 ppm | Ammonia (ppm) (Trial 4): 0.194 ppm | Ammonia (ppm) (Trial 5): 0.226 ppm | Ammonia (ppm) (Trial 6): 0.951 ppm

NCCC[C@H](N)C(=O)O [L-Ornithine, L-ornithine]
Ammonia (ppm) (Mean of 6 separate trials): 0.134 ppm | Ammonia (ppm) (Trial 1): 0.185 ppm | Ammonia (ppm) (Trial 2): 0.260 ppm | Ammonia (ppm) (Trial 3): 0.047 ppm | Ammonia (ppm) (Trial 4): 0.0 ppm | Ammonia (ppm) (Trial 5): 0.181 ppm | Ammonia (ppm) (Trial 6): 0.135 ppm
